These results are taken from patent US20190248834A1, “ENDOMORPHIN-2, TETRAPEPTIDE DERIVATIVES THEREOF, AND USES THEREOF” (priority 2016, published 2019).

Non-standard residues stand in square brackets, D forms with d. pGlu = O=C1CC[C@@H](C(=O)O)N1

Common to all, as to assay type: in vivo, human
Test [1] concerns sore subcutaneous lipomas. In words: Example 35: analgesic effect on soreness of subcutaneous lipomas, topical. Conditions: 1% (w/v) in WEP442, topical. From the text: A subject with many subcutaneous lipomas on their arms, torso and thighs that often become painfully sore after being bumped against objects during the course of daily activities, topically applied to tenderly sore lipomas a composition containing 1% (w/v) N-Ac-Tyr-Pro-Phe-Phe-NH2 (SEQ ID NO: 23) in WEP442. Such applications were repeated multiple times over a period of two months.

Test [2] concerns jaw pain after tooth extraction. In words: Example 28: analgesic effect on dental extraction pain, topical. As for the experimental part:
A subject had substantial pain in the left mandibular jaw that started about 3 hours after extraction of a left mandibular molar tooth. […] Only negligible discomfort was perceptible thereafter.

The test system is the same in test [3]. In words: Example 29: analgesic effect on dental extraction pain, topical. Here is the method: A subject had substantial pain in the right maxillary jaw that started about 2 hours after extraction of a right maxillary tooth. […] Only negligible discomfort, perceived by touching the extraction site with the tongue, was detectable thereafter.
For the next test, the system named is severe migraine. In words: Example 13: analgesic effect on chronic migraine headache, topical. The conditions noted are these: 1% (w/v) in WEP442, topical. From the text:
One late afternoon, the subject developed severe pain in those areas, accompanied by feelings of vertigo and nausea. The subject topically applied a composition containing 1% (w/v) N-Ac-Tyr-Pro-Phe-Phe-NH2, (SEQ ID NO: 23) in WEP442 to the entire occipital scalp, including the peri-auricular areas.

The test system of test [4] is finger pain following trauma. In words: Example 31: analgesic effect on painful inflammation following trauma, topical. Conditions: 1% (w/v) in WEP442, topical. As for the experimental part: A subject, experienced sharp pain in their right index finger while trying to loosen a screw-on lid of a fruit jar with their right hand. After about 10 minutes, the pain became throbbing in nature and very intense. The proximal interphalangeal became swollen and discolored (black and blue) from subcutaneous hemorrhage. […] Discoloration of the joint faded over the next several days.

In another test the test system is hangover headache. In words: Example 74: analgesic effect on severe hangover headache, topical. Conditions: 0.5% (w/v) in WEP442, topical. From the text:
They were provided a solution composition containing 0.5% (w/v) of N-Ac-Tyr-Pro-Phe-Phe-NH2 (SEQ ID NO: 23) in WEP442 which they topically applied to the neck, peripheral scalp, and entire face and forehead.

Test [5] relates to osteoarthritis of the fingers and wrists. In words: Example 82: pain and flexibility of fingers and wrists affected by osteoarthritis, topical. The source says:
A subject had osteoarthritis of the fingers and wrists for about 10 years, with substantial worsening over the past several months. Symptoms included painful finger joints and wrists. The pain was much worsened by flexion, so that making a first was too painful to try. Moreover, complete flexion had not been possible because of actual physical limitations. Anatomical signs of their disorder, e.g., enlarged finger joints, were conspicuous in their case. […] Additionally, complete flexion of the fingers and making of a tight first could be done without any discomfort.

The next test has as its system bruised finger. In words: Example 37: analgesic effect on bruised finger, topical. The conditions noted are these: 1% (w/v) in WEP442, topical. The source says:
A subject, severely bruised their left 5th finger while trying to close a basement window in their house. The pain was intense, and associated with subcutaneous hemorrhage.

Test [6] relates to bursitis of the right elbow. In words: Example 36: analgesic effect on pain of elbow bursitis, topical. The source says:
A subject had painful bursitis of the right elbow that impaired their performance as a golfer. […] They played golf later the same day and experienced no bursitis pain during the game.

Test [7] deals with severe arthritis of the left hip. In words: Example 18: analgesic effect on arthritic hip, topical. As for the experimental part:
A subject had severe arthritis of the left hip with pain and inflammation for 6 months.
The subject topically applied a composition containing 0.7% (w/v) N-Ac-Tyr-Pro-Phe-Phe-NH2 (SEQ ID NO: 23) in WEP442 to the left hip and covered the hip with plastic wrap overnight. The pain reduced about 50% in 8 hours. The samen procedure was repeated the following day. […] The analgesic effect observed was 100% improvement as judged by clinical evaluation.

The next test relates to chronic knee pain. In words: Example 46: analgesic effect on chronic knee pain from post-trauma, topical. The conditions noted are these: 1% (w/v) in WEP442, topical. From the text: Onset of pain occurred in adulthood […], worsening to a level that compromised their performance as a hospital nurse.
Test [8] concerns chronic foot pain and neck pain. In words: Example 67: analgesic effect on pain in feet and neck with plaque psoriasis, topical. Conditions: 0.5% (w/v) in WEP442, topical. From the text:
A person with plaque psoriasis since their early teenage years had chronic foot pain for the past 10-15 years and neck pain for the past several years. The latter had been associated with, and aggravated by occupationally keeping their neck to one side as they held a phone against their head. […] Such topical applications provided relief for over one month when used.

The test system of test [9] is knee pain, bulging meniscus. In words: Example 65: analgesic effect on pain from bulging sub-patellar meniscus, topical. The conditions noted are these: 0.6% (w/v) in WEP442, topical. From the text:
A landscape worker slipped on the grass and twisted their right knee, which became too painful for them to walk on without physical support. […] Surgical corrective procedures were scheduled for 2 weeks later. In the meantime, topical applications of the above solution as needed allowed them to move about with no discomfort.

Another test relates to stress induced headache. In words: Example 51: analgesic effect on stress induced headache, topical. The source says: The onset of the headache was associated with emotional stress. Within two hours, the intensity of the headache became almost disabling, whereupon […] applied a solution composition containing 1% (w/v) N-Pg-Ty-Pro-Phe-Phe-NH2 (SEQ ID NO: 44) in WEP442 to the entire frontal and upper facial areas. […] At that time, the solution was generously applied a second time. […] The analgesic effect was judged to be 100%.

`CC(=O)N[C@@H](Cc1ccc(O)cc1)C(=O)N1CCC[C@H]1C(=O)N[C@@H](Cc1ccccc1)C(=O)N[C@@H](Cc1ccccc1)C(N)=O` [N-Ac-Tyr-Pro-Phe-Phe-NH2]: in test [1], the time to relief was at most 1 min. Also, in test [1] (repeated over two months), the relief of soreness entry is “relieved all feelings of soreness”. In addition, the “time to pain relief” value is “less than 1 minute” in test [2] (1% (w/v) in WEP442, topical); at most 1 min in test [3] (1% (w/v) in WEP442, topical); at most 5 min in the test on severe migraine; at most 15 s in the test with bruised finger; at most 2 min in test [6] (0.8% (w/v) in WEP442, topical). Further, the pain relief entry was “complete relief of pain” in test [2] (1% (w/v) in WEP442, topical to facial-lower jaw skin); “complete relief of pain” in test [3] (1% (w/v) in WEP442, topical to facial maxillary area); “all pain and other symptoms disappeared” in the test on severe migraine; “instantaneous total relief of pain” in [4]; “complete relief of pain was continually sustained” in test [5] (0.8% (w/v) in WEP442, after 1 week, one application every 12 hours); “a degree of improvement of pain” in [5] (0.8% (w/v) in WEP442, one topical application, within 20 minutes). The pain relief result in test [5] (0.8% (w/v) in WEP442, second application, within another 20 minutes) is given as “almost complete relief”; in the test with bruised finger, “complete relief of pain”; in test [6] (0.8% (w/v) in WEP442, topical) it was “complete loss of pain”; in the test on chronic knee pain it was “complete absence of pain”. For the same molecule, the results for the recurrence entry (in the test on severe migraine; in test [4]) were “no recurrence of any migraine headache during the next week” and “No pain returned”, respectively. The headache relief result with hangover headache was “almost immediate, complete, relief of their aching head”. Also, the “duration of pain relief” value in test [6] (0.8% (w/v) in WEP442, topical in the afternoon) is recorded as “Pain did not recur until the next morning”. Also, the “improvement by clinical evaluation” value in test [7] (0.7% (w/v) in WEP442, procedure repeated the following day, another 8 hours) was found to be 100%. Besides, the pain reduction entry in test [7] (0.7% (w/v) in WEP442, under plastic wrap overnight, in 8 hours) is listed as “about 50%”. The “duration of absence of pain” value in the test with chronic knee pain is 8 h.
Take “N-Pg-Tyr-Pro-Phe-Phe-NH2 ([pGlu]YPFF-NH2; SMILES NC(=O)[C@H](Cc1ccccc1)NC(=O)[C@H](Cc1ccccc1)NC(=O)[C@@H]1CCCN1C(=O)[C@H](Cc1ccc(O)cc1)NC(=O)[C@@H]1CCC(=O)N1)”: in test [8], the “duration of pain relief” value lay within 8 to 10 h and the pain relief entry is on record as “almost complete relief of pain”. Besides, in test [9], the “duration of pain relief” value is recorded as “lasted throughout the working day”, the pain relief result is listed as “complete relief of pain” and the “time to pain relief” value lay within 3 to 4 min. In addition, the headache intensity result in the test with stress induced headache (1% (w/v) in WEP442, first application, within about 5 minutes) is “diminished in intensity”. Further, the pain relief result with stress induced headache (1% (w/v) in WEP442, second application, within another 5 minutes) was “free of all headache pain”. In the test with stress induced headache (1% (w/v) in WEP442, topical), the analgesic effect is recorded as 100% and the “time without return of pain” value was at least 24 h.
